pIC50: −log10 of the molar value. Where two headings read alike, the source gives them in different places.
Experiments:
K-Ras G12V [1] = biological target: T1, K-Ras G12V (Homo sapiens, UniProt P01116, G12V); test: SOS1 catalyzed nucleotide exchange assay (GDP form K-Ras), K-Ras G12V; conditions: read-out: K-Ras G12V GDP Biochemical Activity (IC50)
K-Ras WT [2] = biological target: T2, K-Ras WT (Homo sapiens, UniProt P01116); test: SOS1 catalyzed nucleotide exchange assay (GDP form K-Ras), K-Ras WT; conditions: read-out: K-Ras WT GDP Biochemical Activity (IC50)
T2 sequence (P01116 1-169 isoform P01116-2): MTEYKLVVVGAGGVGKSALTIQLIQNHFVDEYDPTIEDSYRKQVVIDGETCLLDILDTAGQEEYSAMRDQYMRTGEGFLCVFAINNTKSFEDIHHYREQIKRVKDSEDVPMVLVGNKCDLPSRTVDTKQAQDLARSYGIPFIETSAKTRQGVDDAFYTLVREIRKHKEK

[3] = system: p-ERK in AGS cells (K-Ras G12D); test: Phospho-ERK1/2(THR202/TYR204) HTRF assay, AGS; assay type: cell-based; conditions: Homo sapiens, 2 h, 2 hours incubation
Protocol: (§1) p-ERK (MAPK pathway) inhibition activity of each of compounds in a variety of K-Ras mutant and K-Ras WT cell lines indicated in Table 23 was evaluated.
(§2) Each of cells in culture medium was seeded in 96-well plates at density indicated in Table 23 and then put in a cell incubator to incubate overnight. The next day, the culture medium was removed and the compound diluted in assay medium was added in each well. […] 10 μL of cell lysates from the 96-well plates were transferred to a 384-well plate (Greiner) containing 2.5 μL/well HTRF® pre-mixed antibodies (Cisbio 64AERPEH). The plate was incubated 4 hours at 25° C. and then read HTRF signals on Tecan Spark multimode microplate reader. The data were analyzed using a 4-parameter logistic model to calculate IC50 values.

[4] = system: p-ERK in SW620 cells (K-Ras G12V); test: Phospho-ERK1/2(THR202/TYR204) HTRF assay, SW620; assay type: cell-based; conditions: Homo sapiens, SW-620, 2 h, 2 hours incubation
Protocol: as §1, §2

AGS cells (K-Ras G12D) = test: 2D cell growth inhibition assay, AGS; assay type: cell-based; conditions: Homo sapiens, 144 h, 6 days, absolute IC50
Protocol: (§3) The cell growth inhibition activity of each of compounds was tested by performing cell growth inhibition assays on a variety of K-Ras mutant and K-Ras WT cell lines indicated in Table 25.
(§4) Each of cells in culture medium was plated in TC-treated 96-well plates at a density indicated in Table 25 and incubated in a cell incubator overnight. The next day, each of compounds was diluted in culture medium and added to the plates. After 6 days incubation in cell incubator, the cell viability was detected by CellTiter-Glo® Cell Viability Assay kit (Promega).

[5] = system: AsPC-1 cells (K-Ras G12D); test: 2D cell growth inhibition assay, AsPC-1; assay type: cell-based; conditions: Homo sapiens, ASPC1, 144 h, AsPC-1, K-Ras G12D, 6 days, absolute IC50
Protocol: as §3, §4

SW620 cells (K-Ras G12V) = test: 2D cell growth inhibition assay, SW620; assay type: cell-based; conditions: Homo sapiens, SW-620, 144 h, 6 days, absolute IC50
K-Ras G12D [6] = biological target: T3, K-Ras G12D (Homo sapiens, UniProt P01116, G12D)
T3 sequence (P01116 1-169 isoform P01116-2 G12D): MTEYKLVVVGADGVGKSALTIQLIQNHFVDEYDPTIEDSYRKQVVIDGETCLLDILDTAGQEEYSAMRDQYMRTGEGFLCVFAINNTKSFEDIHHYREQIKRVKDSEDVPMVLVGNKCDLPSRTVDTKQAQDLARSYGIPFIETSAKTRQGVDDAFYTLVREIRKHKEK

K-Ras G13D [7] = biological target: T4, K-Ras G13D (Homo sapiens, UniProt P01116, G13D)
T4 sequence (P01116 1-169 isoform P01116-2 G13D): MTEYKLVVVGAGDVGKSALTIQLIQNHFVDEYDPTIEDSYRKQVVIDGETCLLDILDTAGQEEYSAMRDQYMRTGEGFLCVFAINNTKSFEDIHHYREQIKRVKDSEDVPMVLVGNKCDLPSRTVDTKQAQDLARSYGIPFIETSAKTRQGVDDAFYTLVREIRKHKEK

K-Ras WT [8] = biological target: T2, K-Ras WT; test: GTP-K-Ras and cRAF interaction assay (GppNp-K-Ras), K-Ras WT; conditions: read-out: K-Ras WT GppNp Biochemical Activity (IC50)
K-Ras G12D [9] = biological target: T3, K-Ras G12D; test: GTP-K-Ras and cRAF interaction assay (GppNp-K-Ras), K-Ras G12D; conditions: read-out: K-Ras G12D GppNp Biochemical Activity (IC50)
K-Ras G12V [10] = biological target: T1, K-Ras G12V; test: GTP-K-Ras and cRAF interaction assay (GppNp-K-Ras), K-Ras G12V; conditions: read-out: K-Ras G12V GppNp Biochemical Activity (IC50)
K-Ras G13D [11] = biological target: T4, K-Ras G13D; test: GTP-K-Ras and cRAF interaction assay (GppNp-K-Ras), K-Ras G13D; conditions: read-out: K-Ras G13D GppNp Biochemical Activity (IC50)
K-Ras G12C [12] = biological target: T5, K-Ras G12C (Homo sapiens, UniProt P01116, G12C); test: SOS1 catalyzed nucleotide exchange assay (GDP form K-Ras), K-Ras G12C; conditions: read-out: K-Ras G12C GDP Biochemical Activity (IC50)
T5 sequence (P01116 1-169 isoform P01116-2 G12C): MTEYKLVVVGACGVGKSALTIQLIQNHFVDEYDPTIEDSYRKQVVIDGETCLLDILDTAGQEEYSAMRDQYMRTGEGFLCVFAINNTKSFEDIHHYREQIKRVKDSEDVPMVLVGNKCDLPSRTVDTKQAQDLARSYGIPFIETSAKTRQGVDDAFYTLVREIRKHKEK

K-Ras G12A [13] = biological target: T6, K-Ras G12A (Homo sapiens, UniProt P01116, G12A); test: SOS1 catalyzed nucleotide exchange assay (GDP form K-Ras), K-Ras G12A; conditions: read-out: K-Ras G12A GDP Biochemical Activity (IC50)
T6 sequence (P01116 1-169 isoform P01116-2 G12A): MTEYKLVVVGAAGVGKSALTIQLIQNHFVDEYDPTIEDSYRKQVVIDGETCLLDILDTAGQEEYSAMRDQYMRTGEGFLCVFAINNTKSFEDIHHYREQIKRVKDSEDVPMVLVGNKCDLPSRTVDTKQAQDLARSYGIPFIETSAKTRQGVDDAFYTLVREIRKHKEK

K-Ras G12R [14] = biological target: T7, K-Ras G12R (Homo sapiens, UniProt P01116, G12R); test: SOS1 catalyzed nucleotide exchange assay (GDP form K-Ras), K-Ras G12R; conditions: read-out: K-Ras G12R GDP Biochemical Activity (IC50)
T7 sequence (P01116 1-169 isoform P01116-2 G12R): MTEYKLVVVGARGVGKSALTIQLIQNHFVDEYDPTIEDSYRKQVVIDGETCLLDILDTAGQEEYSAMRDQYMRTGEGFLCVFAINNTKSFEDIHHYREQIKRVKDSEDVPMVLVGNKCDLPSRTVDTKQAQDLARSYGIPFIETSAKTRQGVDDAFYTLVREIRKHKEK

K-Ras Q61H [15] = biological target: T8, K-Ras Q61H (Homo sapiens, UniProt P01116, Q61H); test: SOS1 catalyzed nucleotide exchange assay (GDP form K-Ras), K-Ras Q61H; conditions: read-out: K-Ras Q61H GDP Biochemical Activity (IC50)
T8 sequence (P01116 1-169 isoform P01116-2 Q61H): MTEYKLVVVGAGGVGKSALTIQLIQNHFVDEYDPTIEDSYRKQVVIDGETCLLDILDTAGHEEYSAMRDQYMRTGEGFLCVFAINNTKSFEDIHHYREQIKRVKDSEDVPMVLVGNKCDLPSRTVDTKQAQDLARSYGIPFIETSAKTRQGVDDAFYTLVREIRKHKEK

K-Ras G12C [16] = biological target: T5, K-Ras G12C; test: GTP-K-Ras and cRAF interaction assay (GppNp-K-Ras), K-Ras G12C; conditions: read-out: K-Ras G12C GppNp Biochemical Activity (IC50)
K-Ras G12A [17] = biological target: T6, K-Ras G12A; test: GTP-K-Ras and cRAF interaction assay (GppNp-K-Ras), K-Ras G12A; conditions: read-out: K-Ras G12A GppNp Biochemical Activity (IC50)
K-Ras G12R [18] = biological target: T7, K-Ras G12R; test: GTP-K-Ras and cRAF interaction assay (GppNp-K-Ras), K-Ras G12R; conditions: read-out: K-Ras G12R GppNp Biochemical Activity (IC50)
K-Ras Q61H [19] = biological target: T8, K-Ras Q61H; test: GTP-K-Ras and cRAF interaction assay (GppNp-K-Ras), K-Ras Q61H; conditions: read-out: K-Ras Q61H GppNp Biochemical Activity (IC50)
[20] = system: p-ERK in NCI-H358 cells (K-Ras G12C); test: Phospho-ERK1/2(THR202/TYR204) HTRF assay, NCI-H358; assay type: cell-based; conditions: Homo sapiens, 2 hours incubation
Protocol: as §1, §2

[21] = system: p-ERK in TCC-PAN2 cells (K-Ras G12R); test: Phospho-ERK1/2(THR202/TYR204) HTRF assay, TCC-PAN2; assay type: cell-based; conditions: 2 hours incubation
Protocol: as §1, §2

[22] = system: p-ERK in NCI-H460 cells (K-Ras Q61H); test: Phospho-ERK1/2(THR202/TYR204) HTRF assay, NCI-H460; assay type: cell-based; conditions: Homo sapiens, 2 hours incubation
Protocol: (§5) p-ERK (MAPK pathway) inhibition activity of each of compounds in a variety of K-Ras mutant and K-Ras WT cell lines indicated in Table 23 was evaluated. MKN-1 with K-Ras WT amplification is also a K-Ras dependent cell line.
as §2

[23] = system: p-ERK in MKN-1 cells (K-Ras WT amplification); test: Phospho-ERK1/2(THR202/TYR204) HTRF assay, MKN-1; assay type: cell-based; conditions: Homo sapiens; MKN-1, K-Ras WT, 2 hours incubation
Protocol: as §5, §2

[24] = system: TCC-PAN2 cells (K-Ras G12R); test: 3D cell growth inhibition assay, TCC-PAN2; assay type: cell-based; conditions: 144 h, 6 days, absolute IC50
Protocol: as §3
(§6) Each of cells in culture medium was plated in ultra-low attachment-coated 96-well plates at a density indicated in Table 25 and incubated in a cell incubator overnight. The next day, each of compounds was diluted in culture medium and added to the plates. After 6 days incubation in cell incubator, the cell viability was detected by CellTiter-Glo® 3D Cell Viability Assay kit (Promega).

[25] = system: NCI-H460 cells (K-Ras Q61H); test: 3D cell growth inhibition assay, NCI-H460; assay type: cell-based; conditions: Homo sapiens, 144 h, 6 days, absolute IC50
Protocol: as §3, §6

MKN-1 cells (K-Ras WT) = test: 3D cell growth inhibition assay, MKN-1; assay type: cell-based; conditions: Homo sapiens, 144 h, MKN-1, K-Ras WT, 6 days, absolute IC50
Protocol: as §3, §6

[26] = system: p-ERK in NCI-H747 cells (K-Ras G13D)
Protocol: as §1, §2

[27] = system: Capan-2 cells (K-Ras G12V)
Protocol: as §3, §6

[28] = system: NCI-H358 cells (K-Ras G12C)
Protocol: as §6

[29] = system: NCI-H747 cells (K-Ras G13D)
Protocol: as §3, §6

[30] = system: RERF-LC-Ad1 cells (K-Ras G12A)
Protocol: as §6

T1 sequence (P01116 1-169 isoform P01116-2 G12V): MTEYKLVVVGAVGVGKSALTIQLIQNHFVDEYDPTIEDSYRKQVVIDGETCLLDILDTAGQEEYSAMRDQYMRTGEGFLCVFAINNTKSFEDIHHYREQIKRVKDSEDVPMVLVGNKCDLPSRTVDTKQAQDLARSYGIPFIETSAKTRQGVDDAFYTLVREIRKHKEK

Work on `C#Cc1c(F)ccc2cc(O)cc(-c3ncc4c(N5CCOC[C@H](CC#N)C5)nc(OC[C@@]56CCCN5C[C@H](F)C6)nc4c3F)c12` (single isomer, unassigned) [Compound 14B] yielded a pIC50 (K-Ras G12V [1]) of 9.29, a pIC50 (K-Ras WT [2]) of 9.05 and an IC50 [3] of 22.9 nM. It also gave an IC50 [4] of 112 nM, an IC50 (AGS cells (K-Ras G12D)) of 49.7 nM and an IC50 [5] of 708 nM. For the same compound, the IC50 (SW620 cells (K-Ras G12V)) was 207 nM, the pIC50 (K-Ras G12D [6]) was 9.13 and the pIC50 (K-Ras G13D [7]) was 8.56. It also gave a pIC50 (K-Ras WT [8]) of 7.80, a pIC50 (K-Ras G12D [9]) of 8.14 and a pIC50 (K-Ras G12V [10]) of 6.80. It also gave a pIC50 (K-Ras G13D [11]) of 8.73.

In the case of `C#Cc1c(F)ccc2cc(O)cc(-c3ncc4c(N5CCCOC[C@@H]5C)nc(OC[C@@]56CCCN5C[C@H](F)C6)nc4c3F)c12` (single isomer, unassigned) [Compound 16A], the pIC50 (K-Ras G12V [1]) was 8.22, the pIC50 (K-Ras WT [2]) was 8.41 and the IC50 [3] was 42.6 nM. For the same compound, the IC50 [4] was 40.5 nM, the IC50 (AGS cells (K-Ras G12D)) was 242 nM and the IC50 [5] was 1380 nM. The IC50 (SW620 cells (K-Ras G12V)) was 191 nM, the pIC50 (K-Ras G12D [6]) was 8.42 and the pIC50 (K-Ras G13D [7]) was 7.85. The pIC50 (K-Ras WT [8]) was 6.13, the pIC50 (K-Ras G12D [9]) was 6.50 and the pIC50 (K-Ras G12V [10]) was 6.33. The pIC50 (K-Ras G13D [11]) was 7.43.

`C#Cc1c(F)ccc2cc(O)cc(-c3c(Cl)cc4c(N5CCCOCC5)nc(OC[C@@]56CCCN5C[C@H](F)C6)nc4c3F)c12` (atropisomer, axis not shown; (M)) [Compound 19B, (M)-4-(6-chloro-8-fluoro-2-(((2R,7aS)-2-fluorotetrahydro-1H-pyrrolizin-7a(5H)-yl)methoxy)-4-(1,4-oxazepan-4-yl)quinazolin-7-yl)-5-ethynyl-6-fluoronaphthalen-2-ol trifluoroacetic acid] showed a pIC50 (K-Ras G12V [1]) of 8.28, a pIC50 (K-Ras G12C [12]) of 8.43 and a pIC50 (K-Ras G12A [13]) of 7.80. For the same compound, the pIC50 (K-Ras G12R [14]) was 8.50, the pIC50 (K-Ras Q61H [15]) was 8.18 and the pIC50 (K-Ras WT [2]) was 8.06. It also gave a pIC50 (K-Ras G12D [6]) of 8.25, a pIC50 (K-Ras G13D [7]) of 7.84 and a pIC50 (K-Ras WT [8]) of 6.74. It also gave a pIC50 (K-Ras G12D [9]) of 7.24, a pIC50 (K-Ras G12V [10]) of 6.87 and a pIC50 (K-Ras G12C [16]) of 6.52. It also gave a pIC50 (K-Ras G13D [11]) of 8.10, a pIC50 (K-Ras G12A [17]) of 6.31 and a pIC50 (K-Ras G12R [18]) of 7.02. For the same compound, the pIC50 (K-Ras Q61H [19]) was 6.67.

`C#Cc1c(F)ccc2cc(O)cc(-c3ncc4c(N5CCCOC[C@H]5C)nc(OC[C@@]56CCCN5C[C@H](F)C6)nc4c3F)c12` (single isomer, unassigned) [Compound 16B] was tested, and the pIC50 (K-Ras G12V [1]) was 9.05, the pIC50 (K-Ras G12C [12]) was 8.95 and the pIC50 (K-Ras G12A [13]) was 8.79. For the same compound, the pIC50 (K-Ras G12R [14]) was 9.00, the pIC50 (K-Ras Q61H [15]) was 8.94 and the pIC50 (K-Ras WT [2]) was 8.76. For the same compound, the IC50 [3] was 1.44 nM, the IC50 [4] was 5.07 nM and the IC50 [20] was 2.1 nM. For the same compound, the IC50 [21] was 97.6 nM, the IC50 [22] was 18.1 nM and the IC50 [23] was 2.97 nM. It also gave an IC50 (AGS cells (K-Ras G12D)) of 5.82 nM, an IC50 [5] of 53 nM and an IC50 (SW620 cells (K-Ras G12V)) of 8.77 nM. For the same compound, the IC50 [24] was 319 nM, the IC50 [25] was 296 nM and the IC50 (MKN-1 cells (K-Ras WT)) was 20.9 nM. For the same compound, the pIC50 (K-Ras G12D [6]) was 9.24, the pIC50 (K-Ras G13D [7]) was 8.65 and the pIC50 [26] was 8.45. The pIC50 [27] was 6.92, the pIC50 [28] was 7.86 and the pIC50 [29] was 7.67. It also gave a pIC50 [30] of 7.51, a pIC50 (K-Ras WT [8]) of 7.67 and a pIC50 (K-Ras G12D [9]) of 8.13. The pIC50 (K-Ras G12V [10]) was 7.98, the pIC50 (K-Ras G12C [16]) was 7.23 and the pIC50 (K-Ras G13D [11]) was 8.64. For the same compound, the pIC50 (K-Ras G12A [17]) was 7.01, the pIC50 (K-Ras G12R [18]) was 7.80 and the pIC50 (K-Ras Q61H [19]) was 7.41.
